Laboratory results from patent US7777049B2, “Crystalline forms of Rizatriptan benzoate” (ratiopharm GmbH, priority 2004, dated 2010).

Experiment: Suspension equilibration of a Form A / Form B mixture in ethyl acetate, product identified by X-ray powder diffraction
Format: physicochemical
Settings: 7 mg Form A and 7 mg Form B suspended in 1 ml ethyl acetate, stirred 16 hours at 25° C.; Form A obtained by XRPD
Description: 7 mg rizatriptan benzoate Form A and 7 mg Form B are suspended in 1 ml ethyl acetate, and stirred 16 hours at 25° C. After filtration, a white powder is obtained.
X-ray powder diffraction measurements were performed on a Philips 1710 powder X-ray diffractometer using Cu Kα radiation (Cu Kα1=1.54060 Å). The X-ray source is operated at 45 kV and 45 mA. Spectra are recorded at a step size of 0.02° with a counting time of 2.4 seconds per step. The accuracy of the 2 theta values of conventionally recorded powder X-ray diffraction patterns is generally ±0.1-0.2°. For sample preparation, about 40 mg of substance was prepared into circular shaped quartz sample holders of 0.5 mm depth and 10 mm width.

relative thermodynamic stability of the crystalline form | SMILES
metastable form | CN(C)CCc1c[nH]c2ccc(Cn3cncn3)cc12 [Form B, N,N-dimethyl-5-(1H-1,2,4-triazol-1-ylmethyl)-1H-indole-3-ethanamine benzoate]
thermodynamically most stable form | CN(C)CCc1c[nH]c2ccc(Cn3cncn3)cc12 [Form A, N,N-dimethyl-5-(1H-1,2,4-triazol-1-ylmethyl)-1H-indole-3-ethanamine benzoate]
